This passage reports IC50 results from patent US11834453B2, “Substituted pyrimido[5,4-d]pyrimidines as HER2 inhibitors” (Array BioPharma Inc., priority 2020, dated 2023).

Assay [1] addresses ErbB2 insYVMA (HER2-YVMA, SEQ ID NO: 2) (Homo sapiens, UniProt P04626, INS775YVMA/P1170A). The assay is described as follows: biochemical. Conditions: ErbB2 insYVMA enzyme assay; read-out: Assay 1 IC50.
Another assay deals with ErbB2 WT (Homo sapiens (Human), UniProt P04626). Put plainly: ErbB enzyme assay (CisBio HTRF KinEASE-TK), Assay 2. The class given is biochemical. The essentials: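 ErbB2 phosphorylates 250 nM biotin-TK substrate at 1 mM ATP in 25 mM HEPES pH 7.4, 10 mM MgCl2, 0.01% Triton X-100 and 2% DMSO, for 30 min at 22 °C. Product is detected by HTRF with Sa-XL665 and TK-Ab-Cryptate. Percent of control is set by DMSO-only wells and pre-quenched wells.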

Another assay concerns the target EGFR (Homo sapiens (Human), UniProt P00533). Put plainly: ErbB enzyme assay (CisBio HTRF KinEASE-TK), Assay 3. The class given is biochemical. The essentials: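 Inhibition is measured as reduced peptide phosphorylation by HTRF KinEASE-TK at 1 mM ATP and 250 nM substrate, 30 min at 22 °C. Values are IC50s from a 4-parameter logistic fit.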
A general note: Time-resolved FRET reads energy transfer from a long-lived donor to a nearby acceptor.

In assay [2] the target is ErbB2 with Exon 20 YVMA insertion (HER2-YVMA) (Homo sapiens (Human), UniProt P04626, INS775YVMA). Put plainly: Cellular phosphorylation assay, constitutive ErbB2 phosphorylation (Y1196) in engineered NIH 3T3 cells, Assay 4. The class given is cell-based. The essentials: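 Engineered NIH 3T3 cells expressing HER2-YVMA treated with compounds 1 h at 37 °C, then formaldehyde-fixed and methanol-permeabilized. pErbB2 Y1196 detected by in-cell infrared immunofluorescence, normalized to GAPDH. IC50 from the normalized curves.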

The target of a further assay is EGFR wild type (EGFR WT) (Homo sapiens (Human), UniProt P00533). Put plainly: Cellular phosphorylation assay, EGF-stimulated EGFR phosphorylation in engineered NIH 3T3 cells, Phospho-EGFR DuoSet IC ELISA, Assay 5. The class given is cell-based. Summed up:
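NIH 3T3 cells expressing EGFR WT (20,000/well, attached overnight) were exposed to serially diluted compound for 1 h at 37 °C, then stimulated with 100 ng/ml rEGF for 10 min. Phospho-EGFR in lysates measured by sandwich ELISA optical density; IC50 from curves.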
For orientation: An ELISA detects its analyte on a solid surface through an enzyme-linked reagent.

pIC50: −log10 of the molar value. A value given as a limit tells only on which side of the number the result lay.

Chain of ErbB2 with Exon 20 YVMA insertion (HER2-YVMA) (P04626 other isoform, or with tags, fused parts or gaps ins YVMA behind 775): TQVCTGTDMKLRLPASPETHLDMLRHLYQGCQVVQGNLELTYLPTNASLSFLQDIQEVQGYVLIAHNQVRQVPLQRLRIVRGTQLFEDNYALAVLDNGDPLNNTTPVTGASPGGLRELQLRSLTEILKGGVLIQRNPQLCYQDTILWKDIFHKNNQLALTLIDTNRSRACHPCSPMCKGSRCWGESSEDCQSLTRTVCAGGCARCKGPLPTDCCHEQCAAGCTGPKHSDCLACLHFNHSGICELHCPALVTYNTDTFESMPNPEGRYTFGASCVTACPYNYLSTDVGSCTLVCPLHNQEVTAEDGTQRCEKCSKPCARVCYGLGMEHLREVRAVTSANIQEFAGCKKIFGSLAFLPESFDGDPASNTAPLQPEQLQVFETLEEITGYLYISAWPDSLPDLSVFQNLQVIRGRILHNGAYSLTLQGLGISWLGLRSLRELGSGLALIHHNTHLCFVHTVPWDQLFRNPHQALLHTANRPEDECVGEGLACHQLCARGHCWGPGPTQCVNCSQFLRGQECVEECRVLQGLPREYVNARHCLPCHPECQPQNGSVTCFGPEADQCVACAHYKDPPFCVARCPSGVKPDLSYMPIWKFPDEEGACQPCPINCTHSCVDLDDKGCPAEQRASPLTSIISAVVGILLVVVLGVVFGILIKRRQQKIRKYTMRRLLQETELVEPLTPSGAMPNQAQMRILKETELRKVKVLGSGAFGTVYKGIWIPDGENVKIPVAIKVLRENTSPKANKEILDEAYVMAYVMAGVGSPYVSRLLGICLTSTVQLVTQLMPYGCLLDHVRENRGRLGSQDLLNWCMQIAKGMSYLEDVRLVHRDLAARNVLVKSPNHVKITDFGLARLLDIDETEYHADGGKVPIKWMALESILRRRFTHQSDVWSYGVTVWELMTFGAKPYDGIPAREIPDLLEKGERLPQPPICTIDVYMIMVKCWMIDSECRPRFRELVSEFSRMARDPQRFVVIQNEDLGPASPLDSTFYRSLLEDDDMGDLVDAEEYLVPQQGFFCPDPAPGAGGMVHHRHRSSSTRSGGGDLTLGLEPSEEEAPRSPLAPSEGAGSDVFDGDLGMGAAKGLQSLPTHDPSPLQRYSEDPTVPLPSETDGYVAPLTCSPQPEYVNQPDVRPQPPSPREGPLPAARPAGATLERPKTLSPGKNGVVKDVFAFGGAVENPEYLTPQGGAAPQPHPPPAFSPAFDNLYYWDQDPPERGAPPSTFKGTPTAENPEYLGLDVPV
Chain of EGFR (P00533 25-1210): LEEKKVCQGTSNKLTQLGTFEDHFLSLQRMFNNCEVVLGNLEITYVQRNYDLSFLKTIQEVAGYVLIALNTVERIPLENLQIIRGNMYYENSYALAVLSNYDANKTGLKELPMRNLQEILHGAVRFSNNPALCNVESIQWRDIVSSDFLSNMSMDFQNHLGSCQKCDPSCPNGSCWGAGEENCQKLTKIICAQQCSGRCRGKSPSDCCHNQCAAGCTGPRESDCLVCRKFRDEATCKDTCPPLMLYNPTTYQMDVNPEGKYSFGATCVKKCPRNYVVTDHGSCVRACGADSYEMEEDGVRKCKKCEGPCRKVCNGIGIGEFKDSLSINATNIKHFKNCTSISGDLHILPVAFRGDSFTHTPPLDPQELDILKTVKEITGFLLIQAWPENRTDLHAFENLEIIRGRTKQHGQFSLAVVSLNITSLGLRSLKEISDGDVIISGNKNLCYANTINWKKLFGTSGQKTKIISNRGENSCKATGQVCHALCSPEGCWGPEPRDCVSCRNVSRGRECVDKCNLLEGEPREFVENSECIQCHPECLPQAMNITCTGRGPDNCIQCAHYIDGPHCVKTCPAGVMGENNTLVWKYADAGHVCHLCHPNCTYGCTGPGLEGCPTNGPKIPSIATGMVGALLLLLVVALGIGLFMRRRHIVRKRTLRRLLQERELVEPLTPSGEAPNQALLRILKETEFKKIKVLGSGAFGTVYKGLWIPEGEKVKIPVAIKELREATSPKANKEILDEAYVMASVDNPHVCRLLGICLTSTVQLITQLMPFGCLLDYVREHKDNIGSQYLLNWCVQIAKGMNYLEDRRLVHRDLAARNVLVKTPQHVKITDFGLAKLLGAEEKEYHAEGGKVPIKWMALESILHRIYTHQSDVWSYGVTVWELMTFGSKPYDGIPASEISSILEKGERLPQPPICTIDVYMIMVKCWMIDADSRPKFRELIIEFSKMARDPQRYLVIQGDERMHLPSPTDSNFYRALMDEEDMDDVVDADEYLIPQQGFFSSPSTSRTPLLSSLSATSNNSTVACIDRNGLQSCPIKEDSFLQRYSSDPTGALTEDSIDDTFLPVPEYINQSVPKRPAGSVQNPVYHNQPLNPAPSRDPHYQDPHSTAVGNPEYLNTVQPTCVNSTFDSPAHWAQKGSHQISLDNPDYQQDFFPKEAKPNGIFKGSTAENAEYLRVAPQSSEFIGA
Chain of EGFR wild type (EGFR WT) (P00533 25-1210): as above
Chain of ErbB2 insYVMA (HER2-YVMA, SEQ ID NO: 2) (P04626 with tags, fused parts or gaps INS775YVMA/P1170A limits assumed): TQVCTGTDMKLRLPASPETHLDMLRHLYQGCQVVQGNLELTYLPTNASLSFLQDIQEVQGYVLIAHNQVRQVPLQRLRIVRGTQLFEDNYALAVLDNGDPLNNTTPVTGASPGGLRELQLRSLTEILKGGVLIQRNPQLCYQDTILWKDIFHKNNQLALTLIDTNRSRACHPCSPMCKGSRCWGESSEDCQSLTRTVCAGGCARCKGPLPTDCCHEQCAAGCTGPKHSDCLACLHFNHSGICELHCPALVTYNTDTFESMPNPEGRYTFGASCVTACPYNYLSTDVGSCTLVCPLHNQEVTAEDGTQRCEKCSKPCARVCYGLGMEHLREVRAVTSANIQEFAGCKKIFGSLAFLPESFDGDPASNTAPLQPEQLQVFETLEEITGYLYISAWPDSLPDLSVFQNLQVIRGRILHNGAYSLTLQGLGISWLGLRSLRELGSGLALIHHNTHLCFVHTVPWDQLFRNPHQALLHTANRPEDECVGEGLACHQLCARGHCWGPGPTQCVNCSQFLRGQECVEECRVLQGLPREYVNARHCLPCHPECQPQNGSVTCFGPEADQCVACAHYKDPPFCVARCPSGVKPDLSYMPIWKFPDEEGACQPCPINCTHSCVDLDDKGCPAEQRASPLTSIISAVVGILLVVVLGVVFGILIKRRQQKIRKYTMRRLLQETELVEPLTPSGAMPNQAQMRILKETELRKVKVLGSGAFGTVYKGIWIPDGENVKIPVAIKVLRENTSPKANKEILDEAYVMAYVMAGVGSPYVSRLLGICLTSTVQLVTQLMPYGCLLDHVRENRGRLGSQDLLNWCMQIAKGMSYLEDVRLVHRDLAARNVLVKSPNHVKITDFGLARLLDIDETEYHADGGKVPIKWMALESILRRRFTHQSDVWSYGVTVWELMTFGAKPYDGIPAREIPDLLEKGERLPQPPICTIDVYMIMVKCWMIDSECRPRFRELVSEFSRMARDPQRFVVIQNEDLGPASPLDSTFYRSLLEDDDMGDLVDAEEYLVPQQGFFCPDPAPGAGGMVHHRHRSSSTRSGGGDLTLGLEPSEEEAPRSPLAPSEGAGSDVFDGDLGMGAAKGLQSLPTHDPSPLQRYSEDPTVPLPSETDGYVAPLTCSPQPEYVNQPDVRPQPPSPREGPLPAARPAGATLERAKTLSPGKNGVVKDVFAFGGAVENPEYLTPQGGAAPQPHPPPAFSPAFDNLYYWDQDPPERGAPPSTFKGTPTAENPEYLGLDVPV

Take `C[C@H]1CN(c2ncc3ncnc(Nc4ccc(Oc5ccn6ncnc6c5)c(Cl)c4)c3n2)C[C@@H]1O` [Example 340]: the pIC50 in assay [1] was 7.77; on ErbB2 WT, 7.39; on EGFR it was 5.40; in assay [2] it was 6.78; against EGFR wild type (EGFR WT) it was at most 5.30.

`O[C@@H]1[C@@H]2CC[C@H]1CN(c1ncc3ncnc(Nc4ccc(Oc5ccn6ncnc6c5)c(Cl)c4)c3n1)C2` [Example 341]: the pIC50 in assay [1] is 7.90; against ErbB2 WT, 7.68; at EGFR it was 5.76; in assay [2], 7.37; at EGFR wild type (EGFR WT), at most 5.30.

`O[C@H]1[C@@H]2CC[C@H]1CN(c1ncc3ncnc(Nc4ccc(Oc5ccn6ncnc6c5)c(Cl)c4)c3n1)C2` [Example 342]: the pIC50 in assay [1] is 7.98; against ErbB2 WT it was 7.60; against EGFR it was 5.78; in assay [2] it was 6.97; against EGFR wild type (EGFR WT), at most 5.30.

For `Cc1cc(Nc2ncnc3cnc(N(CC(F)F)CC(F)F)nc23)ccc1Oc1ccc2c(c1)ncn2C` [Example 344], the negative logarithm of the IC50 (pIC50) in assay [1] is 6.79; against ErbB2 WT, 6.17; against EGFR, at most 5.00; in assay [2], 6.89; against EGFR wild type (EGFR WT), at most 5.30.

Take `Cc1cc(Nc2ncnc3cnc(N4CCC5(CCO5)CC4)nc23)ccc1Oc1ccc2c(c1)ncn2C` [Example 345]: the pIC50 in assay [1] is 7.50; against ErbB2 WT, 7.24; on EGFR, at most 5.00; in assay [2], 7.73; against EGFR wild type (EGFR WT), at most 5.30.

As for `Cc1cc(Nc2ncnc3cnc(N4CCN5C(=O)COC[C@H]5C4)nc23)ccc1Oc1ccc2c(c1)ncn2C` [Example 346], the pIC50 in assay [1] is 7.40; at ErbB2 WT it was 7.22; at EGFR it was at most 5.00; in assay [2], 7.69; on EGFR wild type (EGFR WT) it was at most 5.30.

Consider `Cc1c(Oc2ccc3c(c2)ncn3C)ccc(Nc2ncnc3cnc(N4CC5CC5(O)C4)nc23)c1F` (centres unmarked) [Example 347], for which the pIC50 in assay [1] is 7.10; against ErbB2 WT it was 6.96; on EGFR, at most 5.00; in assay [2], 6.61; at EGFR wild type (EGFR WT), at most 5.30.

As for `Cc1cc(Nc2ncnc3cnc(N(C)[C@H]4CCCOC4)nc23)ccc1Oc1ccn2ncnc2c1` [Example 349], the pIC50 in assay [1] was 7.72; on ErbB2 WT, 7.62; against EGFR, 5.89; in assay [2], 6.94; against EGFR wild type (EGFR WT), at most 5.30.

As for `Clc1cc(Nc2ncnc3cnc(N4C[C@@H]5[C@H](C4)[C@H]4CC[C@@H]5O4)nc23)ccc1Oc1ccn2ncnc2c1` [Example 351], the pIC50 is 7.51 in assay [1]; 7.23 on ErbB2 WT; at most 5.00 at EGFR; 6.82 in assay [2]; at most 5.30 at EGFR wild type (EGFR WT).

With `Cc1cc(Nc2ncnc3cnc(N4CCN[C@H](C)C4)nc23)ccc1Oc1ccn2ncnc2c1` [Example 352], the negative logarithm of the IC50 (pIC50) in assay [1] is 7.43; against ErbB2 WT, 6.88; on EGFR, at most 5.00; in assay [2], 6.83; at EGFR wild type (EGFR WT), at most 5.30.

`Cc1cc(Nc2ncnc3cnc(N(C)C[C@@H]4COCCO4)nc23)ccc1Oc1ccc2c(c1)ncn2C` [Example 353]: the pIC50 in assay [1] was 7.32; on ErbB2 WT, 7.32; against EGFR, at most 5.00; in assay [2], 7.74; at EGFR wild type (EGFR WT), at most 5.30.

As to `FC(F)O[C@@H]1CCN(c2ncc3ncnc(Nc4ccc(Oc5ccn6ncnc6c5)c(Cl)c4)c3n2)C1` [Example 354], the pIC50 in assay [1] is 7.56; against ErbB2 WT, 7.54; against EGFR, at most 5.00; in assay [2], 7.14; against EGFR wild type (EGFR WT), at most 5.30.

For `Cc1cc(Nc2ncnc3cnc(N4CCN[C@H](C(F)(F)F)C4)nc23)ccc1Oc1ccn2ncnc2c1` [Example 355], the pIC50 in assay [1] was 7.71; against ErbB2 WT, 7.61; against EGFR, 5.30; in assay [2] it was 6.74; against EGFR wild type (EGFR WT), at most 5.30.

For `Clc1cc(Nc2ncnc3cnc(N4CC[C@@]5(CCOC5)C4)nc23)ccc1Oc1ccn2ncnc2c1` [Example 356], the pIC50 in assay [1] was 7.44; at ErbB2 WT, 7.03; at EGFR, at most 5.00; in assay [2], 6.57; against EGFR wild type (EGFR WT), at most 5.30.

As for `Cc1cc(Nc2ncnc3cnc(N4CC[C@H](C(F)F)C4)nc23)ccc1Oc1ccn2ncnc2c1` [Example 359], the pIC50 in assay [1] was 7.93; on ErbB2 WT, 7.49; against EGFR it was at most 5.00; in assay [2], 6.56; against EGFR wild type (EGFR WT) it was at most 5.30.

For `Cc1cc(Nc2ncnc3cnc(N4CC[C@H](OC(F)F)C4)nc23)ccc1Oc1ccn2ncnc2c1` [Example 361], the pIC50 in assay [1] was 7.58; against ErbB2 WT, 7.41; at EGFR, 5.13; in assay [2], 6.51; on EGFR wild type (EGFR WT) it was at most 5.30.

In the case of `Cc1cc(Nc2ncnc3cnc(NC4=NC(C)(C)CO4)nc23)ccc1Oc1ccn2ncnc2c1` [Example 362], the pIC50 in assay [1] was 7.58; on ErbB2 WT, 7.49; against EGFR, 5.47; in assay [2] it was 5.90; at EGFR wild type (EGFR WT), at most 5.30.

For `Cc1cc(Nc2ncnc3cnc(N4C[C@@H]5[C@H](C4)[C@@H]4CC[C@H]5O4)nc23)ccc1Oc1ccc2c(c1)ncn2C` [Example 363], the pIC50 in assay [1] is 7.58; at ErbB2 WT, 7.14; on EGFR, at most 5.00; in assay [2], 7.58; at EGFR wild type (EGFR WT) it was at most 5.30.

As to `Cc1cc(Nc2ncnc3cnc(N(C)CC(C)(C)CO)nc23)ccc1Oc1ccc2c(c1)ncn2C` [Example 364], the pIC50 in assay [1] was 7.48; at ErbB2 WT, 7.53; against EGFR it was 5.57; in assay [2] it was 7.59; at EGFR wild type (EGFR WT), at most 5.30.

Regarding `Cc1cc(Nc2ncnc3cnc(N4CC[C@](C)(O)C4)nc23)ccc1Oc1ccn2ncnc2c1` [Example 365], the pIC50 in assay [1] was 7.42; against ErbB2 WT it was 7.09; at EGFR, 5.12; in assay [2], 6.88; on EGFR wild type (EGFR WT), at most 5.30.

As for `Cc1cc(Nc2ncnc3cnc(N(C)[C@H]4C[C@H](O)C4)nc23)ccc1Oc1ccn2ncnc2c1` [Example 366], the pIC50 in assay [1] is 8.08; against ErbB2 WT, 8.17; at EGFR it was 6.52; in assay [2] it was 7.12; on EGFR wild type (EGFR WT), at most 5.30.

For `N#C[C@H]1CCN(c2ncc3ncnc(Nc4ccc(Oc5ccn6ncnc6c5)c(Cl)c4)c3n2)C1` [Example 367], the pIC50 was 7.78 in assay [1]; 7.19 against ErbB2 WT; at most 5.00 on EGFR; 6.58 in assay [2]; at most 5.30 against EGFR wild type (EGFR WT).

Turning to `CN(c1ncc2ncnc(Nc3ccc(Oc4ccn5ncnc5c4)c(Cl)c3)c2n1)[C@@H]1CCCOC1` [Example 368], the pIC50 was 8.44 in assay [1]; 8.32 against ErbB2 WT; 6.52 at EGFR; 7.76 in assay [2]; at most 5.30 against EGFR wild type (EGFR WT).

For `Cc1cc(Nc2ncnc3cnc(N4CCC45COC5)nc23)ccc1Oc1ccn2ncnc2c1` [Example 369], the pIC50 in assay [1] is 8.14; against ErbB2 WT, 7.43; against EGFR, 5.41; in assay [2] it was 6.82; against EGFR wild type (EGFR WT), at most 5.30.

Turning to `Cc1cc(Nc2ncnc3cnc(N4CC[C@H]4C(C)(C)O)nc23)ccc1Oc1ccn2ncnc2c1` [Example 370], the pIC50 in assay [1] is 7.24; against ErbB2 WT, 6.89; against EGFR, at most 5.00; in assay [2], 5.60; against EGFR wild type (EGFR WT), at most 5.30.

On to `Cc1cc(Nc2ncnc3cnc(N4CCC[C@@H]4C(C)(C)O)nc23)ccc1Oc1ccc2c(c1)ncn2C` [Example 371], for which the pIC50 in assay [1] is 7.17; on ErbB2 WT it was 6.31; at EGFR, at most 5.00; in assay [2], 6.89; on EGFR wild type (EGFR WT), at most 5.30.

For `Cc1cc(Nc2ncnc3cnc(N(C)CC(F)F)nc23)ccc1Oc1ccn2ncnc2c1` [Example 372], the pIC50 in assay [1] is 7.82; against ErbB2 WT it was 7.15; against EGFR, 5.14; in assay [2], 6.82; against EGFR wild type (EGFR WT), at most 5.30.

As for `Cc1cc(Nc2ncnc3cnc(N4CC5(CCOC5)C4)nc23)ccc1Oc1ccn2ncnc2c1` [Example 373], the pIC50 is 7.09 in assay [1]; 6.51 against ErbB2 WT; at most 5.00 against EGFR; 5.61 in assay [2]; at most 5.30 on EGFR wild type (EGFR WT).

What is called pIC50 is the negative decadic logarithm of the IC50, by convention in mol/L.
